Patent publication US11584728B2, “Compositions and methods for the prevention and/or treatment of mitochondrial disease, including Friedreich's ataxia” (STEALTH BIOTHERAPEUTICS INC., priority 2019, dated 2023)
Like-named read-outs stand apart in the source and are kept apart here.

Columns and labels:
[1] = tested on: GM03665 cells; test: RSL3 Toxicity Assay (RSL3 Assay); type: cell-based, human; conditions: for EC50: Homo sapiens, GM03665 cells, RSL3 2 μM, 24 hours, MTT
Procedure: Example 19: RSL3 Toxicity Assay (RSL3 Assay)
In brief, GM03665 cells (Coriell Institute) were seeded in 96-well plates (Sarstedt) in DMEM cell culture media containing 10% Fetal Bovine serum and 1% Penicillin-Streptomycin (Pen-Strep) antibiotic mix at the amount of 2×10^4/mL (100 μL or 2×10^3 cells per well). Cells were left to rest overnight at 37° C. in a humidified atmosphere with 5% CO2 to allow attachment of the cells to the culture plate. Test compounds were prepared as DMSO stocks (10 mM) and were serially diluted in cell culture media to obtain 2× working solutions. Cell media was discarded and replaced by 50 μL of test compound solutions or cell media with vehicle for control wells. Within 15 minutes, 2× working solution (4 μM) of 1S,3R-RSL3 (CAS #1219810-16-8, Sigma-Aldrich) (diluted from 5 mM DMSO stock in cell culture media) was added. Final reaction volume was 100 μL and final DMSO concentration in reaction was kept below 0.2% (v/v) and equal in all wells. Final RSL3 concentration was 2 μM and test compound final concentrations in reaction were up to 1000 nM. After 24 hours of incubation cell viability was assessed by MTT test. MTT (Sigma-Aldrich) solution 1 mg/mL in 1×PBS (pH=7,4) was prepared 1 hour before the assay and filtered through Filtropur S 0.2 filters (Sarstedt). Cell media with test compounds was discarded and 100 μL of MTT solution was added to cells. The plates were incubated for 2 hours at +37° C. Thereafter, the MTT solution was removed and 100 μL of isopropanol was added to dissolve sediment. Absorption at 570 and 650 nm was measured using Hidex Sense microplate reader.

[2] = tested on: Nrf-2; test: Nrf-2 Activation Assay (Nrf-2 Assay); type: cell-based, human; conditions: Table 7; GM03665 fibroblasts, 1 μM, 24 hours, qPCR of Nrf-2 responsive genes
Procedure: Example 21: Nrf-2 Activation Assay (Nrf-2 Assay)
This assay was developed internally and was designed to determine if the novel test compounds disclosed herein active Nrf-2 and thereby promote resolution of inflammation by the mechanism believed to be responsible for the activity of omaveloxolone.
Briefly, GM03665 Friedreich Ataxia patient fibroblasts were grown in 12 Well Plates (TC Cell+F) (Sarstedt, Nümbrecht Germany), at a density of 12×10^4 cells/per well in DMEM/F12 (Gibco, ThermoFisher Scientific, Waltham, Mass., USA) cell media supplemented with 10% FBS and 1% Pen/Strep. Cells were left to rest overnight at 37° C. in a humidified atmosphere with 5% CO2 to allow attachment of the cells to the culture plate. Before continuing assay visual inspection of each well was done by light microscopy to detect any possible bacterial and fungal contamination. […] After incubation, cell media was removed and total RNA from the cells was isolated using E.Z.N.A.® Total RNA Kit I (Omega Bio-tek, Norcross, Ga., USA) spin columns, and first-strand cDNA synthesis was carried out using a High Capacity cDNA Reverse Transcription Kit (Applied Biosystems™, Foster City, Calif.) following the manufacturer's instructions. qPCR analysis of gene expression was performed by mixing SYBR® Green Master Mix (Applied Biosystems™) with synthesized cDNA and forward and reverse primers. […] (60 cycles), and 95° C. for 60 seconds, followed by melt curve analysis at 72-95° C., 0.3° C./sec. The relative expression levels for each gene were calculated with the ΔΔCt method and normalized to the expression of REEP5 and SNRPD3 genes.

[3] = tested on: HepG2 human hepatocarcinoma cells; test: Rotenone ATP-Assay (Complex I by-pass); type: cell-based; conditions: for EC50: Homo sapiens, 1 h
Procedure: Example 18: Rotenone ATP-Assay
Introduction: • This assay has been adapted from Haefeli R H, Erb M, Gemperli A C, Robay D, Courdier Fruh I, et al. (2011) NQO1-Dependent Redox Cycling of Idebenone: Effects on Cellular Redox Potential and Energy Levels. PLoS ONE 6(3): e17963. HepG2 human hepatocarcinoma cells were co-incubated with the electron transport chain Complex I toxin rotenone +/−compounds of interest and the corresponding effect on ATP synthesis was measured with a bioluminescent substrate.
Assay Experimental: • In brief, HepG2 cells were plated at 25,000 cells per well in low glucose (1 gram/Liter) DMEM medium +10% fetal calf serum and incubated for 24 hours. The following day, the media was decanted and subsequently replaced with glucose free/serum free DMEM which has been supplemented with 50 micromolar rotenone and compound of interest. Serial dilutions of compound were prepared in 3× dilutions beginning at 25 micromolar. The cells were incubated for 60 minutes in a humidified tissue culture incubator. Following incubation, ATP levels were quantified via bioluminescent assay (Promega […]) and readings were captured on a standard microplate reader.
Calculations: • ATP bioluminescence is plotted versus the log of compound of interest and data were used to generate EC50 values. Curve fitting was performed using a sigmoidal dose response curve fit function (GraphPad Prism software).
Robustness of curve fit was assessed as a quality control measure, with an R squared value of at least 0.80 being required for a successful curve fit. Compounds of interest showing an increase in ATP bioluminescence relative to vehicle control were verified in an independent biological replicate of n=3 technical replicates per dose.
Discussion: • This assay is a direct measure of the ability of compounds of interest to restore ATP production under conditions of inhibition of Complex I of the mitochondrial electron transport chain. As the majority of ATP produced via the electron transport chain is thought to derive from Complex I activity, significant impairment in Complex I function has dire biological consequences. Of note, Complex I mutations are thought to drive pathophysiology in multiple mitochondrial diseases, including Leigh syndrome and Leber's Hereditary Optic Neuropathy (LHON), while diminished Complex I activity and the resultant attenuation of ATP production has been shown in neurodegenerative diseases, including Friedreich's Ataxia, Parkinson's Disease and Huntington's Disease.

[4] = target: lipoxygenase-15 enzyme (Glycine max (Soybean) (Glycine hispida), UniProt P08170); test: Lipoxygenase-15 Assay (LO-15-Assay); type: biochemical; conditions: reduced (hydroquinone) form
[5] = tested on: frataxin deficient fibroblasts (GM03665); test: Frataxin Deficient Fibroblast Viability Assay (BSO Assay); conditions: Homo sapiens, 48 h
[6] = tested on: intact HepG2 cells; test: Rotenone Oxygraph Assay (High-Resolution Respirometry of Intact HepG2 Cells); type: cell-based, human; conditions: rotenone 1 μM, compound 10 μM; for Percent increase in ATP (Rotenone Oxygraph Assay), Mean: Table 4; for Percent increase in ATP (Rotenone Oxygraph Assay), Mean / Rotenone Oxygraph Assay % Increase: intact HepG2 cells; for Rotenone Oxygraph Assay % Increase: Table 7
Procedure: Example 20: Rotenone Oxygraph Assay (High-Resolution Respirometry of Intact HepG2 Cells)
The Oxygraph-2k (O2k, OROBOROS INSTRUMENTS, Austria) was used for measurements of respiration of intact cells. The respirometry was performed in Dulbecco's Modified Eagle Medium (DMEM) high glucose without supplements. All experiments were performed at 37° C.
HepG2 cells (ATCC collection code HB-8065™) were cultured in 10 cm^2 culture dishes in DMEM high glucose medium supplemented with 10% fetal bovine serum (FBS) and 100 units/mL penicillin and 100 μg/mL streptomycin until approximately 90% confluence was reached. Immediately prior to performing the respirometric assay, the cells were washed with media without FBS, trypsinized and resuspended in DMEM high glucose without FBS.
The final concentration of intact cells in the O2k-chamber was 0.5·10^6/mL. After stabilization of respiration, the Complex I inhibitor, rotenone, at 1 μM final concentration was added to inhibit electron flux via Complex I. Then, compound to be tested was added at 10 μM final concentration, and the change in respiration rate of intact cells was monitored.

[7] = Table 3, mean of at least three measurements, nM printed in Table 7, read-out: RSL3 Assay EC50, Mean
[8] = Table 7, read-out: RSL3 Assay EC50
[9] = HepG2 cells, 50 micromolar rotenone, 60 minutes, ATP bioluminescence, read-out: EC50 Rotenone ATP Assay
[10] = Table 7, HepG2 cells, 50 micromolar rotenone, 60 minutes, read-out: Rotenone ATP Assay EC50

| SMILES | EC50 [1, 7] [nM] | EC50 [1, 8] [nM] | Nrf-2 Assay [2] | EC50 [3, 9] [nM] | EC50 [3, 10] [nM] | Activity in both the BSO Assay and the Rotenone ATP Assay (in words) ([3]; circumvent BSO induced cell death and restore ATP production when Complex I is inhibited) | Activity in the LO-15 assay (in words) [4] | EC50 ([5]; read-out: BSO Assay) [nM] | EC50 ([5]; read-out: EC50 (nM) BSO Assay) [nM] | Activity in the RSL3 assay (in words) ([1]; protection of Friedreich's ataxia fibroblasts from RSL3) | Percent increase in ATP (Rotenone Oxygraph Assay), Mean [6] | Rotenone Oxygraph Assay % Increase [6] | Rotenone ATP Assay EC50, nM ([3]; Table 7, HepG2 cells, 50 micromolar rotenone, 60 minutes) | Activity in the Rotenone Oxygraph assay, Complex I by-pass (in words) [6] |
| --- | --- | --- | --- | --- | --- | --- | --- | --- | --- | --- | --- | --- | --- | --- |
| CC1=C(C)C(=O)C(CC[C@](C)(O)CC/C=C(\C)CC/C=C(\C)CCC=C2COC2)=C(C)C1=O [Compound E, 2-((R,6E,10E)-3-hydroxy-3,7,11-trimethyl-14-(oxetan-3-ylidene)tetradeca-6,10-dien-1-yl)-3,5,6-trimethylcyclohexa-2,5-diene-1,4-dione] | 73.2 | 73.2 | Inactive | 1000 to 3000 | 2810 | possess both activities | outside of the range of the assay | 65.1 | < 100 |  |  |  |  |  |
| CC1=C(C)C(=O)C(CC[C@@](C)(O)COCCC[Si](C)(C)C)=C(C)C1=O [Compound M, (R)-2-(3-hydroxy-3-methyl-4-(3-(trimethylsilyl)propoxy)butyl)-3,5,6-trimethylcyclohexa-2,5-diene-1,4-dione] | 41.2 | 41.2 | Inactive | 1000 to 3000 | 1340 |  | best result | 61.2 |  | active | 56.6 +/− 11.3% | 56.6 +/− 11.3% |  |  |
| CC(C)=CCC/C(C)=C/CC/C(C)=C/CC[C@@](C)(O)CCC1=C(C)C(=O)C(C)=C(C)C1=O [Vatiquinone, reference compound] | 56 | 56 |  | > 3000 |  |  |  | 44.3 | < 100 |  | Inactive | Inactive | Inactive | inactive |
